Patent publication US9006221B2, “Method of modulating ship activity” (H. Lee Moffitt Cancer Center and Reserach Institute, Inc., priority 2008, dated 2015)

Key:
[1] = system: FoxP3+CD4+CD25+ Treg cells; assay: FACS quantitation of FoxP3+CD4+CD25+ Treg cells in spleen and lymph node of treated mice; format: in vivo, mouse; settings: daily injection at 125 μM for 7 days
Procedure: FACS quantitation of Mac1^+Gr1^+ Myeloid-Derived Suppressor Cells (Mac1^+Gr1^+ MySC) (A,B) and FoxP3^+CD4^+CD25^+ Treg cells (C,D) in spleen and lymph node of C57BL6 mice treated with NSC13480, vehicle or non-manipulated mice (Normal). ***p<0.001; *p<0.05.
In addition, both donor and host Treg cells can also limit or abrogate GvHD. […] (Paraiso, K. H., et al. 2007. J Immunol 178:2893). […] Adult mice were treated for 7 days with a daily injection of NSC13480 at 125 μM. The frequency of MySC and Treg cells was tested in the spleens of mice treated with NSC13480, the vehicle used for delivery of NSC 13480 and normal, untreated mice.
(§1) Antibody staining and flow cytometry (Examples 1-6): Anti-CD16/32 was co-incubated with the samples to block Fc receptor binding. Antibodies used for staining included: NK1.1 (PK136); CD3e (145-2C11); Ly49G2 (4D11); Gr-1 (RB6-8C5); Mac-1(M1/70); CD11c (HL3); CD4 (GK1.5); CD25 (PC61) and were obtained from BD Pharmingen (San Jose, Calif.). FoxP3 (FJK-16s) was purchased from eBioScience (San Diego, Calif.). All samples were acquired on a FACSCalibur and analyzed using FlowJo8.7.1. For viable staining, dead cells were excluded from the analysis following cytometer acquisition of data by exclusion of the 7AAD dye. […]

NK1.1+CD3- NK cells = assay: NK cell compartment in spleens of treated mice; format: in vivo, mouse; settings: mice treated daily for 6 days, spleen on day 7
Procedure: Mice were treated daily for 6 days with either NSC13480, vehicle alone (Vehicle) or were non-manipulated (Normal). On the 7th day the spleens of the mice were analyzed for NK cell content (NK1.1+CD3− cells) and for expression of the MHC-I inhibitory receptor Ly49G2.
SHIP-deficiency expands the peripheral NK compartment and disrupts the repertoire of receptors elaborated by NK cells that recognize MHC-I ligands. The NK cell compartment was examined in NSC13480-treated mice to determine if inhibition of SHIP enzymatic activity in vivo could also lead to similar disruptions in the NK cell compartment. […] Ly49G2 is an MHC-I inhibitory receptor shown to be under-represented in SHIP^−/− mice.
as §1

SHIP2 = molecular target: T1, SHIP2 (Homo sapiens, UniProt O15357); assay: Malachite Green phosphate release assay, SHIP2; format: biochemical; settings: at 1 mM
T1 sequence (O15357 1-1258): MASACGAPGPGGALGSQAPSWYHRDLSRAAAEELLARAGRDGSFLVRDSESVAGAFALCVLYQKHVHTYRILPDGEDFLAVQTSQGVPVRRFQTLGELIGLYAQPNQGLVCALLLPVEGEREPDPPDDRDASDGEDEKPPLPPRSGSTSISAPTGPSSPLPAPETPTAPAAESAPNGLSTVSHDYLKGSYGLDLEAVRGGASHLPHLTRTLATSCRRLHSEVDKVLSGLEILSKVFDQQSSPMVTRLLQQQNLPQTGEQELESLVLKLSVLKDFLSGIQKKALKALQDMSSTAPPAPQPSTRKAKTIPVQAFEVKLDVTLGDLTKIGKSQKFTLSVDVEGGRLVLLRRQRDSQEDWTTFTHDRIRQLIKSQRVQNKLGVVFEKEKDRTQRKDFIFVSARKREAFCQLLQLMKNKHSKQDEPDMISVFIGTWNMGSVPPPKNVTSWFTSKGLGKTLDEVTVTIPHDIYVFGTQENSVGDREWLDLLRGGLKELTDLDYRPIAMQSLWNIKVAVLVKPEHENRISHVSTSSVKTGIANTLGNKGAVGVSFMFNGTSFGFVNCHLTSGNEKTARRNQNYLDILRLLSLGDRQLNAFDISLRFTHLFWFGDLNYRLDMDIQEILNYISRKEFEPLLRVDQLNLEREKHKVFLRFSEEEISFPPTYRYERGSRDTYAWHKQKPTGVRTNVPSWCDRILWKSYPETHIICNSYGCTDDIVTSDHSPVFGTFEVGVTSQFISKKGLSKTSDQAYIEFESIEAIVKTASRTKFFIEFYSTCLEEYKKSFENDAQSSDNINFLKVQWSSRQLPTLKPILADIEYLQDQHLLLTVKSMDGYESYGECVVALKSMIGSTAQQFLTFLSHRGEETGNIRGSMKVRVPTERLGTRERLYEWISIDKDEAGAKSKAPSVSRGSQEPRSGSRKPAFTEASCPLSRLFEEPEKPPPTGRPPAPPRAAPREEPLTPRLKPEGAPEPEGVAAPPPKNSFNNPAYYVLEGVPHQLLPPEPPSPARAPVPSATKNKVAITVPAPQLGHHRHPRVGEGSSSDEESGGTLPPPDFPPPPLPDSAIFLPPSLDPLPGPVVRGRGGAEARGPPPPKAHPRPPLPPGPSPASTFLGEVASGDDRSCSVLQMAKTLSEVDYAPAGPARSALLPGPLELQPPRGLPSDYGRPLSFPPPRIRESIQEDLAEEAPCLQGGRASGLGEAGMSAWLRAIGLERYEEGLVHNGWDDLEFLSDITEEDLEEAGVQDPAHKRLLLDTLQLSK

SMILES	number of Treg cells ([1]; lymph node)	number of Treg cells ([1]; spleen)	frequency of Ly49G2+ NK cells (NK1.1+CD3- NK cells)	splenic NK cell numbers (NK1.1+CD3- NK cells)	inhibition of SHIP2 activity (SHIP2)
OC(c1cc(-c2ccccc2)nc2c1ccc1ccccc12)C1CCCCN1 (centres unmarked) [NSC13480, (2-phenylbenzo[h]quinolin-4-yl)-piperidin-2-ylmethanol]	increased significantly	increased significantly	much reduced frequency	significant increase	–
CC(C)CCC[C@@H](C)[C@H]1CC[C@H]2[C@@H]3CC[C@H]4C[C@H](N)CC[C@]4(C)[C@H]3CC[C@]12C [NSC23922, (3R,5S,8R,9S,10S,13R,14S,17R)-10,13-dimethyl-17-[(2R)-6-methylheptan-2-yl]-2,3,4,5,6,7,8,9,11,12,14,15,16,17-tetradecahydro-1H-cyclopenta[a]phenanthren-3-amine]	–	–	–	–	fails to inhibit
